# In patent US6441206B1, “Use of organic acid esters in dietary fat” (Raisio Benecol Ltd., priority 1997, dated 2002):
# How the values were obtained:
# [1] = thermal resistance of light spread at 45° C.; format: physicochemical; conditions: fat component with 5% ester, 45° C. up to 4 hours, mixed after return to room temperature
# Experimental: The polarity of the sterol/stanol esters described above is an extremely useful property. It is characteristic of compounds according to the invention, e.g. β-sitosterol dicarboxylic acid hemiesters and citrates that in lipid solutions (e.g. 2.5-5% of the fat component) they promote the mixing of the lipid and the water. […] The prepared light spread also lasted better than the comparative sample when heated to 45° C. for up to 4 hours. By improved thermal resistance is meant that after 2 hours at 45° C., more oil had separated from the comparative sample than from the sterol-containing sample. Over the next 2 hours, the separation of oil from the comparative sample continued. In the sterol-containing spread, however, negative change had ceased.
# cholesterol absorption [2] = conditions: cited from earlier work; for cholesterol absorption lowering effect: molar quantities of the fatty acid esters
# [3] = solubility in alcohol (ethanol) and lipids; format: physicochemical
# Description: According to one preferred embodiment of the invention, β-sitosterols are esterified and sterol esters are hydrogenated to form stanols. […] This achieves the significant advantage that hydrogenation can be carried out at room temperature.
# Di-β-sitosteryl citrate is formed in a heterogeneous reaction between citric acid and β-sitosterol, at the same reaction conditions as described in the previous section. The compound is separated from the sterol monocitrate on the basis of solubility, using ethanol extraction. The method is based on the fact that the solubility of sterol monocitrate in ethyl alcohol is ten times that of di-β-sitosteryl citrate.
# A minimum of 7 ml of water was azeotropically distilled from the reaction mixture over 7-8 hours; as the conversion approached theoretical, upon cooling no lactic acid or plant sterols were crystallized from the reaction mixture. The cooled reaction mixture was a yellowish, viscose liquid. The toluene was removed from the reaction mixture in a vacuum (29 mmHg) at a temperature of 80-90° C. […] As a whole, the material obtained was useable and contained very little or no free plant sterols and/or lactic acid.
# [4] = tested on: triglyceride content of the blood serum; conditions: rats; cited from earlier work
# [5] = tested on: triglyceride content of liver; conditions: cited from earlier work
# white male mice = conditions: 3.5 g dose per 1 kg live weight; cited from earlier work
# total serum cholesterol = conditions: daily supply of plant sterol 2-3 g; cited from earlier work
# cholesterol absorption [6] = conditions: infusion test; cited from earlier work
# blood cholesterol = conditions: in vivo; cited from earlier work
# [7] = soluble matter in spirit vinegar (10 weight-% acetic acid); format: physicochemical; conditions: spirit vinegar with 10 weight-% acetic acid; 12 hours standing without stirring
# Description: 6.80 g β-sitosterol citrate from example 12 90.7 g Rajamäki Spirit Vinegar (Primalco Oy, Nurmijärvi), containing 10 weight-% acetic acid.
molecule,measurement,setting,value
"CCC(CCC(C)C1CCC2C3CC=C4CC(OC(=O)CCC(=O)O)CCC4(C)C3CCC12C)C(C)C (stereo not drawn) [Example 3, β-sitosterol Hydrogen Succinate]",changes in the sample after heating,[1],almost reversible
same,lowering of the cholesterol content of blood,cholesterol absorption [2]; compared with phytosterol monocarboxyl acid esters,as effectively as the phytosterol monocarboxyl acid esters
"CC[C@H](CC[C@@H](C)[C@H]1CC[C@H]2[C@@H]3CC=C4C[C@@H](OC(=O)C(C)O)CC[C@]4(C)[C@H]3CC[C@]12C)C(C)C (stereo partly drawn) [Example 19, β-sitosterol Lactate]",solubility in alcohol,[3]; in words,highly soluble in alcohol
same,solubility in lipids and ethanol,"[3]; reaction product, viscose liquid at 60-100° C.",soluble in lipids and ethanol
CC(=O)O [acetate],cholesterol absorption lowering effect,cholesterol absorption [2],equally as effective
"CC[C@H](CC[C@@H](C)[C@H]1CC[C@H]2[C@@H]3C[C@@H](OC=O)[C@@]4(O)C[C@@H](OC=O)CC[C@]4(C)[C@H]3CC[C@]12C)C(C)C [sitostane-3β-, 5α-, 6β-triol-3,6-diformiate]",lowering of triglyceride content of the blood serum,[4],moderately lower
same,lowering of triglyceride content of liver,[5]; guinea pigs,54%
same,acute toxicity,white male mice,did not show toxicity
CC[C@H](CC[C@@H](C)[C@H]1CC[C@H]2[C@@H]3CC[C@H]4C[C@@H](O)CC[C@]4(C)[C@H]3CC[C@]12C)C(C)C [sitostanol],total serum cholesterol,total serum cholesterol,decrease in the total serum cholesterol
CC[C@H](CC[C@@H](C)[C@H]1CC[C@H]2[C@@H]3CC[C@H]4C[C@@H](O)CC[C@]4(C)[C@H]3CC[C@]12C)C(C)C [β-sitostanol],inhibition of cholesterol absorption,cholesterol absorption [6],83%
CC[C@H](CC[C@@H](C)[C@H]1CC[C@H]2[C@@H]3CC=C4C[C@@H](O)CC[C@]4(C)[C@H]3CC[C@]12C)C(C)C [β-sitosterol],inhibition of cholesterol absorption,cholesterol absorption [6],50%
same,response in this test,"[5]; source material as comparison, which test is meant is not clear",did not give a positive response
decanoate,cholesterol absorption lowering effect,cholesterol absorption [2],equally as effective
oleate,cholesterol absorption lowering effect,cholesterol absorption [2],equally as effective
soy sterol-2-carbamate glutaric acid K^+—salt,lowering blood cholesterol concentrations,blood cholesterol,proved to lower blood cholesterol concentrations
β-sitosterol citrate [Example 12],amount of the sterol citrate dissolved,[7],0.74%
